Reference: publication PMC3662833 (Journal of molecular biology, 2011)

Assays:
Unmodified ASL^Lys3UUU = experiment: FITC-peptide fluorescence quenching titration with ASL; type: binding, human; details: in words; for interaction with unmodified ASL^Lys3UUU: FITC-peptide fluorescence quenching
[1] = in words
E. coli ASL^Val3UAC = experiment: ESI-MS complex formation; type: binding; details: peptide in five-fold excess, preliminary, data not shown
Peptide structure by CD = type: physicochemical; details: in words
ASL^Val3UAC-m^6A37 = experiment: FITC-peptide fluorescence quenching titration with ASL; type: binding, E. coli; details: in words
unmodified hASL^Lys3UUU = experiment: ESI-MS complex formation; type: binding, human; details: preliminary, data not shown, in words

AGPVPLHSLSYYYNQ [Peptide P31, reference compound]
RNA binding (control peptide) (Unmodified ASL^Lys3UUU; control used as a baseline, ASL not specified, data not shown): non-RNA binding

HRGYCRDRWNCGEYF [Peptide P15]
solubility [1]: lacked the solubility required of the assay

PHRQCSAPAKSCKILP [Peptide P17]
interaction with unmodified ASL^Lys3UUU (Unmodified ASL^Lys3UUU): little to no interaction

RVTHHAFLGAHRTVG [Peptide P6]
RNA in complex with P6 (E. coli ASL^Val3UAC): 50%
structure as determined by CD (Peptide structure by CD): lack of structure
interaction with unmodified ASL^Lys3UUU (Unmodified ASL^Lys3UUU): little to no interaction
binding of ASL^Val3UAC-m^6A37 (ASL^Val3UAC-m^6A37): did not bind
RNA bound by P6 (unmodified hASL^Lys3UUU): small amounts
